How the values were obtained:
Type in all cases: in vivo
[1] = system: velvetleaf (Abutilon theophrasti); test: Test G Post-Emergence Protocol; settings: Abutilon theophrasti, post-emergence, 312 h; for pest or weed control at 15.625 g/ha: 15.625 g ai/ha, evaluated after 13 days (100=total damage to plant; 0=no damage to plant), read-out: Velvetleaf damage rating; for pest or weed control at 62.5 g/ha: 62.5 g ai/ha, read-out: Velvetleaf damage rating (100=total damage to plant; 0=no damage to plant); for pest or weed control at 62.5 g/ha / pest or weed control at 250 g/ha: evaluated after 13 days; for pest or weed control at 250 g/ha: 250 g ai/ha, read-out: damage to plant, Velvetleaf (100=total damage to plant; 0=no damage to plant)
How it was run: (§1)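 Eight days post-sowing, plants received a spray of test compound (acetone/water 50:50, 0.5% Tween 20) at 15.625, 62.5 or 250 g/ha. Glasshouse regime thereafter: 24/16 °C, 14 h light, 65% humidity. Assessment after 13 days on a 0–100 damage scale.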

[2] = system: redroot pigweed (Amaranthus retroflexus); test: Test G Post-Emergence Protocol; settings: Amaranthus retroflexus, post-emergence, 312 h; for pest or weed control at 15.625 g/ha: 15.625 g ai/ha, evaluated after 13 days (100=total damage to plant; 0=no damage to plant), read-out: Pigweed, Redroot damage rating; for pest or weed control at 62.5 g/ha: 62.5 g ai/ha, read-out: Pigweed, Redroot damage rating (100=total damage to plant; 0=no damage to plant); for pest or weed control at 62.5 g/ha / pest or weed control at 250 g/ha: evaluated after 13 days; for pest or weed control at 250 g/ha: 250 g ai/ha, read-out: damage to plant, Pigweed, Redroot (100=total damage to plant; 0=no damage to plant)
How it was run: as §1

[3] = system: barnyardgrass (Echinochloa crus-galli); test: Test G Post-Emergence Protocol; settings: Echinochloa crus-galli, post-emergence, 312 h; for pest or weed control at 15.625 g/ha: 15.625 g ai/ha, evaluated after 13 days (100=total damage to plant; 0=no damage to plant), read-out: Barnyardgrass damage rating; for pest or weed control at 62.5 g/ha: 62.5 g ai/ha, read-out: Barnyardgrass damage rating (100=total damage to plant; 0=no damage to plant); for pest or weed control at 62.5 g/ha / pest or weed control at 250 g/ha: evaluated after 13 days; for pest or weed control at 250 g/ha: 250 g ai/ha, read-out: damage to plant, Barnyardgrass (100=total damage to plant; 0=no damage to plant)
How it was run: as §1

[4] = system: ivy-leaved morning glory (Ipomoea hederacea); test: Test G Post-Emergence Protocol; settings: Ipomoea, post-emergence, 312 h; for pest or weed control at 15.625 g/ha: 15.625 g ai/ha, evaluated after 13 days (100=total damage to plant; 0=no damage to plant), read-out: Morningglory, Ivy-leaved damage rating
How it was run: as §1

[5] = system: giant foxtail (Setaria faberi); test: Test G Post-Emergence Protocol; settings: Setaria faberi, post-emergence, 312 h; for pest or weed control at 15.625 g/ha: 15.625 g ai/ha, evaluated after 13 days (100=total damage to plant; 0=no damage to plant), read-out: Foxtail, Giant damage rating; for pest or weed control at 62.5 g/ha: 62.5 g ai/ha, read-out: Foxtail, Giant damage rating (100=total damage to plant; 0=no damage to plant); for pest or weed control at 62.5 g/ha / pest or weed control at 250 g/ha: evaluated after 13 days; for pest or weed control at 250 g/ha: 250 g ai/ha, read-out: damage to plant, Foxtail, Giant (100=total damage to plant; 0=no damage to plant)
How it was run: as §1

[6] = system: corn (Zea mays); test: Test G Post-Emergence Protocol; settings: Zea mays, post-emergence, 312 h; for plant injury at 15.625 g/ha: 15.625 g ai/ha, evaluated after 13 days (100=total damage to plant; 0=no damage to plant), read-out: Corn damage rating; for plant injury at 62.5 g/ha: 62.5 g ai/ha, read-out: Corn damage rating (100=total damage to plant; 0=no damage to plant); for plant injury at 62.5 g/ha / plant injury at 250 g/ha: evaluated after 13 days; for plant injury at 250 g/ha: 250 g ai/ha, read-out: damage to plant, Corn (100=total damage to plant; 0=no damage to plant)
How it was run: as §1

[7] = system: velvetleaf (Abutilon theophrasti); test: Test G Pre-Emergence Protocol; settings: Abutilon theophrasti, pre-emergence, 312 h, evaluated after 13 days; for pest or weed control at 15.625 g/ha: 15.625 g ai/ha; for pest or weed control at 15.625 g/ha / pest or weed control at 250 g/ha: read-out: Velvetleaf damage rating (100=total damage to plant; 0=no damage to plant); for pest or weed control at 62.5 g/ha: 62.5 g ai/ha, 100=total damage to plant, 0=no damage to plant, read-out: plant damage rating, Velvetleaf; for pest or weed control at 250 g/ha: 250 g ai/ha
How it was run: (§2)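 Pre-emergence spray, 15.625/62.5/250 g/ha, vehicle acetone:water 50:50 + 0.5% Tween 20, applied 1 d after sowing. Glasshouse 24/16° C, 14 h light, 65% RH, watered twice daily. Visual damage rating at 13 d, 0–100 scale.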

[8] = system: redroot pigweed (Amaranthus retroflexus); test: Test G Pre-Emergence Protocol; settings: Amaranthus retroflexus, pre-emergence, 312 h, evaluated after 13 days; for pest or weed control at 15.625 g/ha: 15.625 g ai/ha; for pest or weed control at 15.625 g/ha / pest or weed control at 250 g/ha: read-out: Pigweed, Redroot damage rating (100=total damage to plant; 0=no damage to plant); for pest or weed control at 62.5 g/ha: 62.5 g ai/ha, 100=total damage to plant, 0=no damage to plant, read-out: plant damage rating, Pigweed, Redroot; for pest or weed control at 250 g/ha: 250 g ai/ha
How it was run: as §2

[9] = system: barnyardgrass (Echinochloa crus-galli); test: Test G Pre-Emergence Protocol; settings: Echinochloa crus-galli, pre-emergence, 312 h, evaluated after 13 days; for pest or weed control at 15.625 g/ha: 15.625 g ai/ha, read-out: Barnyard grass damage rating (100=total damage to plant; 0=no damage to plant); for pest or weed control at 62.5 g/ha: 62.5 g ai/ha, 100=total damage to plant, 0=no damage to plant, read-out: plant damage rating, Barnyardgrass; for pest or weed control at 250 g/ha: 250 g ai/ha, read-out: Barnyardgrass damage rating (100=total damage to plant; 0=no damage to plant)
How it was run: as §2

[10] = system: ivy-leaved morning glory (Ipomoea hederacea); test: Test G Pre-Emergence Protocol; settings: Ipomoea, pre-emergence, 312 h, evaluated after 13 days; for pest or weed control at 15.625 g/ha: 15.625 g ai/ha, read-out: Morning-glory, Ivy-leaved damage rating (100=total damage to plant; 0=no damage to plant); for pest or weed control at 62.5 g/ha: 62.5 g ai/ha, 100=total damage to plant, 0=no damage to plant, read-out: plant damage rating, Morningglory, Ivy-leaved; for pest or weed control at 250 g/ha: 250 g ai/ha, read-out: Morningglory, Ivy-leaved damage rating (100=total damage to plant; 0=no damage to plant)
How it was run: as §2

[11] = system: giant foxtail (Setaria faberi); test: Test G Pre-Emergence Protocol; settings: Setaria faberi, pre-emergence, 312 h, evaluated after 13 days; for pest or weed control at 15.625 g/ha: 15.625 g ai/ha; for pest or weed control at 15.625 g/ha / pest or weed control at 250 g/ha: read-out: Foxtail, Giant damage rating (100=total damage to plant; 0=no damage to plant); for pest or weed control at 62.5 g/ha: 62.5 g ai/ha, 100=total damage to plant, 0=no damage to plant, read-out: plant damage rating, Foxtail, Giant; for pest or weed control at 250 g/ha: 250 g ai/ha
How it was run: as §2

[12] = system: corn (Zea mays); test: Test G Pre-Emergence Protocol; settings: Zea mays, pre-emergence, 312 h, evaluated after 13 days; for plant injury at 15.625 g/ha: 15.625 g ai/ha; for plant injury at 15.625 g/ha / plant injury at 250 g/ha: read-out: Corn damage rating (100=total damage to plant; 0=no damage to plant); for plant injury at 62.5 g/ha: 62.5 g ai/ha, 100=total damage to plant, 0=no damage to plant, read-out: plant damage rating, Corn; for plant injury at 250 g/ha: 250 g ai/ha
How it was run: as §2

CN1C[C@H](c2ccc(C(F)(F)F)cc2)[C@@H](C(=O)Nc2ncc(Cl)cc2Cl)C1=O (racemic) [Compound 1435]
pest or weed control at 15.625 g/ha [1]: 0% | pest or weed control at 62.5 g/ha [1]: 0% | pest or weed control at 250 g/ha [1]: 0% | pest or weed control at 15.625 g/ha [2]: 0% | pest or weed control at 62.5 g/ha [2]: 30% | pest or weed control at 250 g/ha [2]: 30% | pest or weed control at 15.625 g/ha [3]: 0% | pest or weed control at 62.5 g/ha [3]: 0% | pest or weed control at 250 g/ha [3]: 0% | pest or weed control at 15.625 g/ha [4]: 0% | pest or weed control at 62.5 g/ha ([4]; 62.5 g ai/ha, evaluated after 13 days, read-out: Morningglory, Ivy-leaved damage rating (100=total damage to plant; 0=no damage to plant)): 0% | pest or weed control at 250 g/ha ([4]; 250 g ai/ha, evaluated after 13 days, read-out: damage to plant, Morningglory, Ivy-leaved (100=total damage to plant; 0=no damage to plant)): 0% | pest or weed control at 15.625 g/ha [5]: 0% | pest or weed control at 62.5 g/ha [5]: 0% | pest or weed control at 250 g/ha [5]: 0% | plant injury at 15.625 g/ha [6]: 0% | plant injury at 62.5 g/ha [6]: 0% | plant injury at 250 g/ha [6]: 10% | pest or weed control at 15.625 g/ha [7]: 0% | pest or weed control at 62.5 g/ha [7]: 0% | pest or weed control at 250 g/ha [7]: 0% | pest or weed control at 15.625 g/ha [8]: 0% | pest or weed control at 62.5 g/ha [8]: 0% | pest or weed control at 250 g/ha [8]: 0% | pest or weed control at 15.625 g/ha [9]: 0% | pest or weed control at 62.5 g/ha [9]: 0% | pest or weed control at 250 g/ha [9]: 0% | pest or weed control at 15.625 g/ha [10]: 0% | pest or weed control at 62.5 g/ha [10]: 0% | pest or weed control at 250 g/ha [10]: 0% | pest or weed control at 15.625 g/ha [11]: 0% | pest or weed control at 62.5 g/ha [11]: 0% | pest or weed control at 250 g/ha [11]: 0% | plant injury at 15.625 g/ha [12]: 0% | plant injury at 62.5 g/ha [12]: 0% | plant injury at 250 g/ha [12]: 0%

Cc1n[nH]c(NC(=O)[C@@H]2C(=O)N(C)C[C@H]2c2ccc(C(F)(F)F)cc2)c1C#N (racemic) [Compound 1582]
pest or weed control at 15.625 g/ha [1]: 0% | pest or weed control at 62.5 g/ha [1]: 0% | pest or weed control at 250 g/ha [1]: 0% | pest or weed control at 15.625 g/ha [2]: 0% | pest or weed control at 62.5 g/ha [2]: 0% | pest or weed control at 250 g/ha [2]: 0% | pest or weed control at 15.625 g/ha [3]: 0% | pest or weed control at 62.5 g/ha [3]: 0% | pest or weed control at 250 g/ha [3]: 0% | pest or weed control at 15.625 g/ha [4]: 0% | pest or weed control at 15.625 g/ha [5]: 0% | pest or weed control at 62.5 g/ha [5]: 0% | pest or weed control at 250 g/ha [5]: 0% | plant injury at 15.625 g/ha [6]: 0% | plant injury at 62.5 g/ha [6]: 0% | plant injury at 250 g/ha [6]: 0% | pest or weed control at 15.625 g/ha [7]: 0% | pest or weed control at 62.5 g/ha [7]: 0% | pest or weed control at 250 g/ha [7]: 0% | pest or weed control at 15.625 g/ha [8]: 0% | pest or weed control at 62.5 g/ha [8]: 0% | pest or weed control at 250 g/ha [8]: 0% | pest or weed control at 15.625 g/ha [9]: 0% | pest or weed control at 62.5 g/ha [9]: 0% | pest or weed control at 250 g/ha [9]: 0% | pest or weed control at 15.625 g/ha [10]: 0% | pest or weed control at 62.5 g/ha [10]: 0% | pest or weed control at 250 g/ha [10]: 0% | pest or weed control at 15.625 g/ha [11]: 0% | pest or weed control at 62.5 g/ha [11]: 0% | pest or weed control at 250 g/ha [11]: 0% | plant injury at 15.625 g/ha [12]: 0% | plant injury at 62.5 g/ha [12]: 0% | plant injury at 250 g/ha [12]: 0%
